Test: xn = mol fraction of the nth substance listed
Conditions: for electrical conductivity: 101 kPa; for viscosity: 100 kPa

CCCCCCCCCCCCCCCC[n+]1ccccc1.O=C([O-])c1ccccc1O + CC(C)C[C@H](N)C(=O)O + O
electrical conductivity [S/m]
Conditions	293.15 K	298.15 K	303.15 K	308.15 K	313.15 K
x2 = 0.0009002, x1 = 3.6e-07	0.000905	0.00101	0.00113	0.00125	0.00138
x2 = 0.0009002, x1 = 7.2e-07	0.00104	0.00117	0.0013	0.00144	0.00159
x2 = 0.0009002, x1 = 9.1e-07	0.00119	0.00133	0.00148	0.00164	0.00181
x2 = 0.0009002, x1 = 1.27e-06	0.00132	0.00148	0.00165	0.00183	0.00201
x2 = 0.0009002, x1 = 1.63e-06	0.00147	0.00166	0.00184	0.00204	0.00225
x2 = 0.0009002, x1 = 1.99e-06	0.00163	0.00185	0.00207	0.00229	0.00253
x2 = 0.0009002, x1 = 2.54e-06	0.00179	0.00203	0.00229	0.00255	0.00282
x2 = 0.0009002, x1 = 2.9e-06	–	–	–	0.00275	0.00309
x2 = 0.0009002, x1 = 3.08e-06	0.00192	0.00218	0.00246	–	–
x2 = 0.0009002, x1 = 3.44e-06	0.00203	0.00231	0.00263	0.00297	0.00331
x2 = 0.0009002, x1 = 3.81e-06	–	0.00243	0.00276	0.00311	0.00348
x2 = 0.0009002, x1 = 3.99e-06	0.00214	–	–	–	–
x2 = 0.0009002, x1 = 4.35e-06	0.00224	0.00256	0.00289	0.00327	0.00366
x2 = 0.0009002, x1 = 4.71e-06	0.00235	0.00268	0.00303	0.00342	0.00383
x2 = 0.0009002, x1 = 5.07e-06	–	–	0.00316	0.00356	0.00399
x2 = 0.0009002, x1 = 5.26e-06	0.00246	0.0028	–	–	–
x2 = 0.0009002, x1 = 5.62e-06	0.00255	0.0029	0.00328	0.00369	0.00415
x2 = 0.0009002, x1 = 5.98e-06	0.00266	0.00302	0.00341	0.00383	0.0043
x2 = 0.001799, x1 = 3.6e-07	0.00153	0.00172	0.00192	0.00213	0.00235
x2 = 0.001799, x1 = 5.5e-07	0.00167	0.00187	0.00208	0.00231	0.00256
x2 = 0.001799, x1 = 9.1e-07	0.00179	0.00201	0.00224	0.00249	0.00275
x2 = 0.001799, x1 = 1.09e-06	0.00192	0.00216	0.00241	0.00268	0.00296
x2 = 0.001799, x1 = 1.46e-06	0.00204	0.00229	0.00256	0.00283	0.00313
x2 = 0.001799, x1 = 1.64e-06	0.00212	0.00239	0.00267	0.00297	0.00329
x2 = 0.001799, x1 = 1.82e-06	0.00221	0.00248	0.00278	0.00309	0.00341
x2 = 0.001799, x1 = 2e-06	0.00227	0.00257	0.00288	0.00321	0.00356
x2 = 0.001799, x1 = 2.19e-06	0.00235	–	0.003	0.00334	0.0037
x2 = 0.001799, x1 = 2.37e-06	–	–	–	–	0.00384
x2 = 0.001799, x1 = 2.55e-06	0.00242	0.00275	–	0.00345	–
x2 = 0.001799, x1 = 2.73e-06	0.00249	0.00284	0.00322	0.00361	0.00402
x2 = 0.001799, x1 = 3.1e-06	0.00256	0.00291	0.0033	0.0037	0.00413
x2 = 0.001799, x1 = 3.28e-06	0.00262	0.00298	0.00338	0.00379	0.00423
x2 = 0.001799, x1 = 3.46e-06	–	–	–	–	0.00434
x2 = 0.001799, x1 = 3.64e-06	0.00269	0.00306	0.00347	0.00389	–
x2 = 0.001799, x1 = 3.83e-06	0.00275	0.00312	0.00354	0.00397	0.00443

CCCCCC[n+]1ccn(C)c1.O=S(=O)([O-])C(F)(F)F + CC(C)O
Conditions	viscosity [mPa·s]
293.15 K, x2 = 0.9231	3.79
298.15 K, x2 = 0.1282	99
298.15 K, x2 = 0.2454	67.9
298.15 K, x2 = 0.469	31.4
303.15 K, x2 = 0.3506	41.2
313.15 K, x2 = 0.9231	2.08

CCOP(=O)([O-])OCC.CC[n+]1ccn(C)c1 + CC(C)O + O
Conditions	viscosity [mPa·s]
298.15 K, x2 = 0.299, x3 = 0.3	79
313.15 K, x2 = 0.199, x3 = 0.2008	90
323.15 K, x2 = 0.099, x3 = 0.0998	94
323.15 K, x2 = 0.15, x3 = 0.1498	76

Source: the CheMixHub ionic liquid set
